Literature values as cited in patent US9302023B2, “Aldehyde gas deodorant and method for producing same” (TOAGOSEI CO., LTD., priority 2012, dated 2016).

Conditions: stated as known; unsupported substance

| Structure (SMILES) | Mutagenicity of the substance itself |
| --- | --- |
| NNC(=O)CCCCC(=O)NN [adipic dihydrazide] | negative |
| NNC(=O)NN [carbohydrazide] | negative |
| NN [hydrated hydrazine] | strongly positive |
| NN [hydrazine] | positive |
| NNC(=O)C(=O)NN [oxalic dihydrazide] | negative |
| NNC(=O)CCC(=O)NN [succinic dihydrazide] | weakly positive |

Same assay, conditions: stated as known; unsupported substance; listed as Hydrazine

| Structure (SMILES) | Mutagenicity of the substance itself |
| --- | --- |
| NN [hydrazine] | highly positive |
